ChEMBL document CHEMBL1123842, “Structural modification study of mitoxantrone (DHAQ). Chloro-substituted mono- and bis[(aminoalkyl)amino]anthraquinones” (1987)

Columns and labels:
P388 [1] = assay: In vivo antineoplastic activity was determined in BDF1 mice implanted with P388 leukemia and activity is expressed as T/C at 200 mg/kg ip dose (Q4dx2 treatment); assay type: functional, Mus musculus; settings: route intraperitoneal
L1210 = assay: In vitro cytotoxicity against L1210 leukemia cells was determined; assay type: functional; settings: Mus musculus
P388 [2] = assay: In vivo antineoplastic activity was determined in BDF1 mice implanted with P388 leukemia and activity is expressed as T/C at 400 mg/kg ip dose (Q4dx2 treatment); assay type: functional, Mus musculus; settings: route intraperitoneal
P388 [3] = assay: In vivo antineoplastic activity was determined in BDF1 mice implanted with P388 leukemia and activity is expressed as T/C at 100 mg/kg ip dose (Q4dx2 treatment); assay type: functional, Mus musculus; settings: route intraperitoneal
[4] = test system: Colon adenocarcinoma cell line; assay: In vitro cytotoxicity against Human colon adenocarcinoma cells was determined; assay type: functional
P388 [5] = assay: In vivo antineoplastic activity was determined in BDF1 mice implanted with P388 leukemia and activity is expressed as T/C at 60 mg/kg ip dose (Q1dx5 treatment); settings: route intraperitoneal
P388 [6] = assay: In vivo antineoplastic activity was determined in BDF1 mice implanted with P388 leukemia and activity is expressed as T/C at 30 mg/kg ip dose (Q1dx5 treatment); settings: route intraperitoneal
P388 [7] = assay: In vivo antineoplastic activity was determined in BDF1 mice implanted with P388 leukemia and activity is expressed as T/C at 120 mg/kg ip dose (Q1dx5 treatment); settings: route intraperitoneal
P388 [8] = assay: In vivo antineoplastic activity was determined in BDF1 mice implanted with P388 leukemia and activity is expressed as T/C at 100 mg/kg ip dose (Q4dx5 treatment); assay type: functional, Mus musculus; settings: route intraperitoneal
P388 [9] = assay: In vivo antineoplastic activity was determined in BDF1 mice implanted with P388 leukemia and activity is expressed as T/C at 200 mg/kg ip dose (Q1dx5 treatment); settings: route intraperitoneal
B16 [10] = assay: In vivo antineoplastic activity was determined in BDF1 mice implanted with B16 melanoma and activity expressed as T/C at 12.5 mg/kg ip dose (Q1Dx9 treatment); assay type: functional, Mus musculus; settings: route intraperitoneal
B16 [11] = assay: In vivo antineoplastic activity was determined in BDF1 mice implanted with B16 melanoma and activity expressed as T/C at 6.25 mg/kg ip dose (Q1Dx9 treatment); assay type: functional, Mus musculus; settings: route intraperitoneal
B16 [12] = assay: In vivo antineoplastic activity was determined in BDF1 mice implanted with B16 melanoma and activity expressed as T/C at 50 mg/kg ip dose (Q1Dx9 treatment); assay type: functional, Mus musculus; settings: route intraperitoneal
P388 [13] = assay: In vivo antineoplastic activity was determined in BDF1 mice implanted with P388 leukemia and activity is expressed as T/C at 50 mg/kg ip dose (Q4dx2 treatment); assay type: functional, Mus musculus; settings: route intraperitoneal
B16 [14] = assay: In vivo antineoplastic activity was determined in BDF1 mice implanted with B16 melanoma and activity expressed as T/C at 25 mg/kg ip dose (Q1Dx9 treatment); assay type: functional, Mus musculus; settings: route intraperitoneal

CN(C)CCNc1ccc(Cl)c2c1C(=O)c1c(O)ccc(Cl)c1C2=O
T/C (P388 [1]): 113
CC50 (L1210): 0.176 µM
T/C (P388 [2]): 125

O=C1c2cccc(NCCNCCO)c2C(=O)c2cccc(Cl)c21
T/C (P388 [1]): 105
CC50 (L1210): 1.17 µM
T/C (P388 [3]): 100
CC50 [4]: 1.4 µM

CN(C)CCNc1ccc(Cl)c2c1C(=O)c1c(O)ccc(O)c1C2=O
T/C (P388 [5]): 137
CC50 (L1210): 0.0362 µM
T/C (P388 [6]): 121
T/C (P388 [7]): 169

CN(C)CCNc1ccc(Cl)c2c1C(=O)c1c(NCCN(C)C)ccc(Cl)c1C2=O
T/C (P388 [8]): 113
T/C (P388 [9]): 119
CC50 (L1210): 1.67 µM

CN(C)CCCNc1ccc(Cl)c2c1C(=O)c1c(O)ccc(O)c1C2=O
T/C (P388 [5]): 123
CC50 (L1210): 0.265 µM
T/C (P388 [6]): 109
T/C (P388 [7]): 129

CN(C)CCNc1ccc(NCCN(C)C)c2c1C(=O)c1c(Cl)ccc(Cl)c1C2=O
T/C value (B16 [10]): 143
T/C (B16 [11]): 117
T/C (B16 [12]): 133
T/C (P388 [1]): 117
CC50 (L1210): 0.117 µM
T/C (P388 [3]): 120
CC50 [4]: 0.13 µM
T/C (P388 [13]): 110
T/C (B16 [14]): 141

O=C1c2c(O)ccc(Cl)c2C(=O)c2c(NCCNCCO)ccc(Cl)c21
T/C (P388 [1]): 96
T/C (P388 [2]): 111
